This note sets out measurements from patent US5629430A, “Trifluoromethylpyrroloindolecarboxylic acid ester and process for production thereof” (Kyorin Pharmaceutical Co., Ltd., priority 1992, dated 1997).

Test [1] has as its system P388 mouse leukemia cells. Description: Activity against tumor cell growth (P388, MTT, 72 h). In kind it is cell-based. Conditions: read-out: IC50 (50% growth inhibition concentration). The method in brief: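 P388 cells at 1.5×10^5 cells/ml in RPMI1640 with 10% FBS, 2 mM glutamine and 5 μM 2-hydroxyethyldisulfide; DMSO-dissolved compound diluted in medium, 72 h at 37 °C, 5% CO2. MTT added for 3 h, formazan dissolved in HCl-isopropanol, A540 read. IC50 from absorbance ratio versus untreated cells.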

Test [2] relates to P388 cells. Description: Antineoplastic activity, mice having P388 cells transplanted in abdominal cavity. In kind it is in vivo, mouse (female, CDF1 strain). Conditions: for T/C in words: cure (Survived for 60 days or longer): two mice, Cured: Survived for 60 days or longer; for T/C (average survival days, dosed vs. solvent-dosed control): next day after transplantation, >=130% effective. The method, then:
(§1) The test compound was dissolved in dimethylsulfoxide, and the solution was adequately diluted with 10% Emulfore EL620(produced by Rhone Poulenc Co.) to prepare the test compound solution. The antineoplastic activity was evaluated as below.
To the abdominal cavity of a female mouse (CDF1 strain, 8 to 9 week age), 1×10^6 P388 cells were transplanted. Next day, the test medicine solution was injected intraperitonealy in a single dose. Five to eight mice were employed for the solvent-dosed control group, and two mice were employed for each of the dosed groups. The antineoplastic effect was evaluated by the ratio (T/C, %) of the average survival days of the dosed group (T) to the average survival days of the solvent-dosed control group(C). The T/C ratio of 130% or more is evaluated to be effective.
"Cured": Survived for 60 days or longer

The subject of test [3] is Colon-26 cells. In words: Antineoplastic activity, mice having Colon-26 cells transplanted subcutaneously. It counts as in vivo, mouse (female, CDF1 strain). To be noted: Mus musculus, Colon 26, iv, 168 h, read-out: T/C (average tumor weight, dosed vs. solvent-dosed control); for response vs control in vivo at 0.25 mg/kg: i.v. 0.25 mg/kg single dose on sixth day, tumor weighed one week after dosage. The method, then:
as §1
To the lateral region of a female mouse (CDF1 strain, 8 to 12 week age), 1×10^6 Colon-26 cells were transplanted subcutaneously. On the sixth day after the transplantation, the test medicine solution-was injected into the tail vein in a single dose. Seven to twelve mice were employed for the solvent-dosed control group, and five mice were employed for the dosed group. One week after the dosage, the tumor was cut out, and the weight thereof was measured. The antineoplastic effect was evaluated by the ratio (T/C) of the average tumor weight of the dosed group (T) to the average tumor weight of the solvent-dosed control group (C).

The test system of test [4] is Sarcoma-180 cells. Description: Antineoplastic activity, mice having Sarcoma-180 cells transplanted subcutaneously. Conditions: Mus musculus, Sarcoma-180, iv, 144 h, read-out: T/C (average tumor weight, dosed vs. solvent-dosed control); for response vs control in vivo at 0.25 mg/kg: i.v. 0.25 mg/kg single dose, tumor weighed six days after dosage. In kind it is in vivo, mouse (female, CDR strain). The essentials:
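Female CDR mice, 5–6 weeks, implanted subcutaneously with 3.6×10^6 to 5×10^6 Sarcoma-180 cells; next day a single tail-vein dose of compound in DMSO diluted with 10% Emulfore EL620. Tumors excised and weighed six days post-dose; efficacy expressed as T/C ratio of mean tumor weights versus solvent controls.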

[5] abbreviates: P388 mouse leukemia cells, 72 h, 37° C., MTT.

Molecules are shown by their SMILES. Converted amounts (≈) assume the structure as drawn. Where two headings read alike, the source gives them in different places.

As for `COC(=O)c1c(C(F)(F)F)[nH]c2c(OC(=O)N3CCN(C)CC3)cc3c(c12)C(CBr)CN3C(=O)c1cc2cc(OC)c(OC)c(OC)c2[nH]1` (stereo not drawn) [Example 47, Methyl 1-bromomethyl-5-(4-methylpiperazin-1-ylcarbonyl)oxy-7-trifluoromethyl-3-(5,6,7-trimethoxy-1H-indol-2-ylcarbonyl)-1,2,3,6-tetrahydropyrrolo[3,2-e]indole-8-carboxylate], the IC50 in test [1] (Mus musculus, P388, 72 h) stood at 31 ng/mL (≈ 41.2 nM). The “T/C in words: cure (Survived for 60 days or longer)” value (shortened to “T/C in words: cure”) in test [2] (i.p. 0.5 mg/kg single dose) is recorded as “Both cured”. The response vs control in vivo at 1 mg/kg in test [3] is 7%; in test [4] it was 19%.
As for `COC(=O)c1c(C(F)(F)F)[nH]c2c1C13CC1CN(C(=O)c1cc4cc(NC(=O)c5cc6ccccc6[nH]5)ccc4[nH]1)C3=CC2=O` (stereo not drawn) [Example 23, Methyl 2-[5-[(1H-indol-2-ylcarbonyl)amino]-1H-indol-2-ylcarbonyl]-6-trifluoromethyl-1,2,8,8a-tetrahydrocyclopropa[c]pyrrolo[3,2-e]indole-4 (5H)-one-7-carboxylate], in test [1] (setting [5]), the IC50 worked out at 0.86 ng/mL (≈ 1.4 nM). Besides, the “T/C in words: cure” value in test [2] (i.p. 0.25 mg/kg single dose) is reported as “Both cured”. The response vs control in vivo at 0.25 mg/kg worked out at 12% in test [3] and 16% in test [4].
Turning to `COC(=O)c1c(C(F)(F)F)[nH]c2c(OC(=O)N3CCN(C)CC3)cc3c(c12)C(CCl)CN3C(=O)c1cc2cc(NC(=O)c3cc4ccccc4o3)ccc2[nH]1` (stereo not drawn) [Example 48], the IC50 in test [1] (Mus musculus, P388, 72 h) is 80 ng/mL (≈ 103 nM). For the same compound, the “T/C in words: cure” value in test [2] (i.p. 0.5 mg/kg single dose) was “Both cured”. Also, the response vs control in vivo at 1 mg/kg is 6% in test [3] and 8% in test [4].
With `COC(=O)c1c(C(F)(F)F)[nH]c2c(O)cc3c(c12)C(CBr)CN3C(=O)c1cc2cc(OC)c(OC)c(OC)c2[nH]1` (stereo not drawn) [Example 34, methyl 1-bromomethyl-5-hydroxy-7-trifluoromethyl-3-(5,6,7-trimethoxy-1H-indol-2-ylcarbonyl)-1,2,3,6-tetrahydropyrrolo[3,2e]indole-8-carboxylate], the IC50 in test [1] (setting [5]) is 0.15 ng/mL (≈ 0.239 nM). In addition, the “T/C (average survival days, dosed vs. solvent-dosed control)” value in test [2] (i.p. 0.125 mg/kg single dose) is 189%. For the same compound, in test [4], the response vs control in vivo at 0.25 mg/kg is 37%.
For the compound `COC(=O)c1c(C(F)(F)F)[nH]c2c(O)cc3c(c12)C(CBr)CN3C(=O)c1cc2cc(NC(=O)c3cc4ccccc4[nH]3)ccc2[nH]1` (stereo not drawn) [Example 36, Methyl 1-bromomethyl-5-hydroxy-3-[5-[(1H-indol-2-ylcarbonyl)amino]-1H-indol-2-ylcarbonyl)-7-trifluoromethyl-1,2,3,6-tetrahydropyrrolo[3,2-e]indole-8-carboxylate], the IC50 in test [1] (setting [5]) turned out to be 1.3 ng/mL (≈ 1.87 nM). Besides, in test [2] (i.p. 0.125 mg/kg single dose), the “T/C (average survival days, dosed vs. solvent-dosed control)” value was 384%. Moreover, the response vs control in vivo at 0.25 mg/kg in test [4] turned out to be 14%.
`COC(=O)c1c(C(F)(F)F)[nH]c2c(OC(=O)N3CCN(C)CC3)cc3c(c12)C(CBr)CN3C(=O)c1cc2cc(NC(=O)c3cc4ccccc4o3)ccc2[nH]1` (stereo not drawn) [Example 49]: in test [1] (Mus musculus, P388, 72 h), the IC50 is 89 ng/mL (≈ 108 nM). The “T/C in words: cure” value in test [2] (i.p. 0.5 mg/kg single dose) was “Both cured”. Further, the response vs control in vivo at 0.5 mg/kg in test [3] came out at 9%; in test [4] it was 12%.
As for `COC(=O)c1c(C(F)(F)F)[nH]c2c1C13CC1CN(C(=O)c1cc4cc(NC(=O)c5cc6ccccc6o5)ccc4[nH]1)C3=CC2=O` (stereo not drawn) [Example 24, Methyl 2-[5-[(benzofuran-2-ylcarbonyl)amino]-1H-indol-2-ylcarbonyl]-6-trifluoromethyl-1,2,8,8a-tetrahydrocyclopropa[c]pyrrolo[3,2-e]indole-4 (5H)-one-7-carboxylate], the IC50 in test [1] (setting [5]) was 0.53 ng/mL (≈ 0.862 nM). In addition, in test [2] (i.p. 0.125 mg/kg single dose), the “T/C in words: cure” value is listed as “Both cured”. Also, the response vs control in vivo at 0.25 mg/kg in test [3] was determined as 11%; in test [4] it was 17%.
As for `COC(=O)c1c(C(F)(F)F)[nH]c2c1C13CC1CN(C(=O)c1cc4cc(OC)c(OC)c(OC)c4[nH]1)C3=CC2=O` (stereo not drawn) [Example 20, methyl 6-trifluoromethyl-2-(5,6,7-trimethoxy1H-indol-2-ylcarbonyl)-1,2,8,8a-tetrahydrocyclopropa[c]-pyrrolo[3,2e]indole-4 (5H)-one-7-carboxylate], the IC50 in test [1] (setting [5]) was found to be 0.24 ng/mL (≈ 0.44 nM). Also, the “T/C (average survival days, dosed vs. solvent-dosed control)” value in test [2] (i.p. 0.125 mg/kg single dose) came to 194%. Further, the values for the response vs control in vivo at 0.25 mg/kg in test [3] and in test [4] (*(n = 4)) were 15% and 36%, respectively.
